The source of these data is patent US20260070922A1, “PYRAZOLE AND IMIDAZOLE DERIVATIVES AS DUAL OREXIN AND KAPPA-OPIOID RECEPTORS MODULATORS COMPOSITION, METHODS FOR TREATING NEUROLOGICAL AND PSYCHIATRIC DISORDERS” (HAGER BIOSCIENCES, LLC, priority 2022, published 2026).

Each structure is given as a SMILES string.

For test [1], the target named is T1, Orexin type 1 (OX1R) receptor (Homo sapiens, UniProt O43613).
T1 construct: expressed in transfected cells; host or cells: CHO cells (G418 selection)
T1 sequence (O43613 1-425): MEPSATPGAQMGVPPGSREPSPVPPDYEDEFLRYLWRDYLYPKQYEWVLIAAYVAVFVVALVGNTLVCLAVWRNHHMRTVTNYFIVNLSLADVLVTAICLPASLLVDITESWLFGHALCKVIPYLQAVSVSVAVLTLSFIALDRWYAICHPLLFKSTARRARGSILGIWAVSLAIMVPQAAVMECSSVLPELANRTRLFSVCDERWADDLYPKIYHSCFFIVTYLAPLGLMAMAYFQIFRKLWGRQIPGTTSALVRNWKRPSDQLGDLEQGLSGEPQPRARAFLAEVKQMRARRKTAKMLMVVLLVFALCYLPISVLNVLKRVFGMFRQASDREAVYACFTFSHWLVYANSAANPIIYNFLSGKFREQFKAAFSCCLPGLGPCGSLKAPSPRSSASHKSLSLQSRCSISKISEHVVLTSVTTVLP
Briefly: In vitro orexin antagonism assay: intracellular calcium measurement (FLIPR), orexin-A 3 nM as agonist. The class given is cell-based. To be noted: for IC50: first value of IC50/Kb cell; for inhibition at 1 µM: read-out: OX1R, % Inh. @ 1 uM; for Kb: second value of IC50/Kb cell. On the procedure:
(§1) In Vitro Orexin Antagonism Measurement Assay: Intracellular Calcium Measurements:
(§2) Chinese hamster ovary (CHO) cells expressing the human […] and the human orexin-2 receptor, respectively, are grown in culture medium (Ham F-12 with L-Glutamine) containing 300 μg/mL G418, 100 U/mL penicillin, 100 μg/mL streptomycin and 10% heat inactivated fetal calf serum (FCS). The cells are seeded at 20,000 cells/well into 384-well black clear bottom sterile plates (Greiner). The seeded plates are incubated overnight at 37° C. in 5% 002. Human orexin-A as an agonist is prepared as 1 mM stock solution in MeOH: water (1:1), diluted in HBSS containing 0.1% bovine serum albumin (BSA), NaHCO3: 0.375 g/L and 20 mM HEPES for use in the assay at a final concentration of 3 nM.
(§3) Antagonists are prepared as 10 mM stock solution in DMSO, then diluted in 384-well plates using DMSO followed by a transfer of the dilutions into in HBSS containing 0.1% bovine serum albumin (BSA), NaHCO3: 0.375 g/L and 20 mM HEPES. On the day of the assay, 50 μL of staining buffer (HBSS containing 1% FCS, 20 mM HEPES, NaHCO3: 0.375 g/L, 5 mM probenecid (Sigma) and 3 μM of the fluorescent calcium indicator fluo-4 AM (1 mM stock solution in DMSO, containing 10% pluronic) is added to each well. The 384-well cell-plates are incubated for 50 min at 37° C. in 5% CO2 followed by equilibration at RT for 30 min before measurement.
(§4) Within the Fluorescent Imaging Plate Reader (FLIPR Tetra, Molecular Devices), antagonists are added to the plate in a volume of 10 μL/well, incubated for 120 min and finally 10 μL/well of agonist is added. Fluorescence is measured for each well at 1 second intervals, and the height of each fluorescence peak is compared to the height of the fluorescence peak induced by 3 nM orexin-A with vehicle in place of antagonist. The IC50 value (the concentration of compound needed to inhibit 50% of the agonistic response) is determined and may be normalized using the obtained IC50 value of an on-plate reference compound. Optimized conditions were achieved by adjustment of pipetting speed and cell splitting regime. The calculated IC50values may fluctuate depending on the daily cellular assay performance. Fluctuations of this kind are known to those skilled in the art.
(Calcium flux is commonly read through the fluorescence of an indicator in the cells.)

In test [2] the target is T2, human orexin-2 receptor (OX2R) (Homo sapiens, UniProt O43614).
T2 construct: expressed in transfected cells; host or cells: CHO cells (G418 selection)
T2 sequence (O43614 1-444): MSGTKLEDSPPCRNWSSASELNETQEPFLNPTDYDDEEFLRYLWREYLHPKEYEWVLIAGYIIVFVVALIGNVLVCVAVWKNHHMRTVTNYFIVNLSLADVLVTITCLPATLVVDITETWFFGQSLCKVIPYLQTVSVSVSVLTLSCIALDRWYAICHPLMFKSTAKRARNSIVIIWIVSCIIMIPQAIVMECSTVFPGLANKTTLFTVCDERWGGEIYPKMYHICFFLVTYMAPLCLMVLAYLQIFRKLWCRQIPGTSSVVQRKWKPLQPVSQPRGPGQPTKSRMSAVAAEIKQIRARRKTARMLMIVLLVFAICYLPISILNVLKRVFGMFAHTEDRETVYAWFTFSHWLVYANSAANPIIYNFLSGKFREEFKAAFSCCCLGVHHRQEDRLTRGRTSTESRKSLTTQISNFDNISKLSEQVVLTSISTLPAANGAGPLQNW
The test is described as above. The class given is cell-based. As to conditions: for inhibition at 1 µM: read-out: OX2R, % Inh. @ 1 uM; for IC50: first value of IC50/Kb cell; for Kb: second value of IC50/Kb cell. On the procedure: Antagonistic activities on both orexin receptors have been measured for each example compound using the following procedure:
as §1, §2, §3
as §4, with “art. In the case where IC50values have been determined several times for the same compound, the geometric mean has been given.” for “art.”

The term IC50 denotes the point on the concentration scale where inhibition reaches its midpoint. As usually defined, the Kb is the equilibrium dissociation constant of an antagonist, usually derived from a functional assay. Regarding `O=C(c1c(-c2ccc(F)cc2)nn2c1COCC2)N1CCC[C@H]1Cn1ccc(-c2ccc(F)cc2)n1` [Example 54], in test [1], the IC50 was determined as 122 nM, the inhibition at 1 µM is 98% and the Kb was determined as 26 nM. Further, the inhibition at 1 µM in test [2] was 45.1%.

Consider `O=C(c1c(-c2ccccc2F)nn2c1COCC2)N1CCC[C@H]1Cn1ccc(-c2ccccn2)n1` [Example 70], for which, in test [1], the IC50 was 120 nM, the inhibition at 1 µM came to 60% and the Kb came out at 25 nM. The inhibition at 1 µM in test [2] amounted to 35%.

Take `O=C(c1c(-c2ccccc2F)nn2c1COCC2)N1CCC[C@H]1Cn1cc(-c2ccccn2)cn1` [Example 71]: the inhibition at 1 µM in test [1] worked out at 14%; in test [2], 40%.

Turning to `O=C(c1c(-c2ccccc2F)nn2c1COCC2)N1CCC[C@H]1Cn1cc(-c2ccccc2)cn1` [Example 72], in test [1], the concentration for half-maximal inhibition (IC50) worked out at 620 nM, the inhibition at 1 µM is 64% and the Kb came to 13 nM. In addition, in test [2], the inhibition at 1 µM was 45%.

As to `O=C(c1c(-c2ccccc2)nc2ccc(F)cn12)N1CCC[C@H]1Cn1cc(-c2ccccn2)cn1` [Example 74], the figures for the inhibition at 1 µM in test [1] and in test [2] were 40% and 45%, respectively.

`O=C(c1c(-c2ccccc2)nn2c1COCC2)N1CCC[C@H]1Cn1ccc(-c2ccccn2)n1` [Example 76]: the values for the inhibition at 1 µM in test [1] and in test [2] were 46% and 25%, respectively.

Consider `O=C(c1c(-c2ccccc2)nn2c1COCC2)N1CCC[C@H]1Cn1cc(-c2ccccn2)cn1` [Example 77], for which the inhibition at 1 µM worked out at 22% in test [1] and 23% in test [2].

In the case of `O=C(c1c(-c2ccccc2)nc2cc(C(F)(F)F)ccn12)N1CCC[C@H]1Cn1cc(-c2ccccn2)cn1` [Example 79], the inhibition at 1 µM in test [1] was found to be 43%. For the same compound, in test [2], the concentration for half-maximal inhibition (IC50) worked out at 77 nM, the inhibition at 1 µM was 62% and the antagonist equilibrium constant (Kb) is 13 nM.

Consider `O=C(c1c(-c2ccccc2)nc2cc(C(F)(F)F)ccn12)N1CCC[C@H]1Cn1cc(-c2ccc(F)cn2)cn1` [Example 81], for which, in test [1], the concentration for half-maximal inhibition (IC50) was found to be 400 nM, the inhibition at 1 µM stood at 58% and the Kb came out at 84 nM. In addition, in test [2], the IC50 came out at 70 nM, the inhibition at 1 µM was determined as 63% and the antagonist dissociation constant (Kb) was determined as 12 nM.

On to `O=C(c1c(-c2ccccc2F)nn2c1COCC2)N1CCC[C@H]1Cn1cc(-c2ccc(F)cn2)cn1` [Example 83], for which the inhibition at 1 µM in test [1] is 17%; in test [2] it was 39%.

For `O=C(c1c(-c2ccccc2)nc2ccc(F)cn12)N1CCC[C@H]1Cn1cc(-c2ccc(F)cn2)cn1` [Example 84], the inhibition at 1 µM in test [1] came out at 32%. For the same compound, in test [2], the IC50 was found to be 400 nM, the inhibition at 1 µM was found to be 58% and the antagonist dissociation constant (Kb) was 70 nM.

On to `O=C(c1c(-c2ccccc2)nn2c1COCC2)N1CCC[C@H]1Cn1cc(-c2ccc(F)cn2)cn1` [Example 85], for which the figures for the inhibition at 1 µM in test [1] and in test [2] were 19% and 35%, respectively.

Turning to `O=C(c1c(-c2ccccc2)nn2c1COCC2)N1CCC[C@H]1Cn1cc(-c2ccccc2)cn1` [Example 86], in test [1], the concentration for half-maximal inhibition (IC50) is 1300 nM, the inhibition at 1 µM turned out to be 56% and the Kb was 280 nM. Further, the inhibition at 1 µM in test [2] is 42%.

Turning to `O=C(c1c(-c2ccccc2F)nn2c1COCC2)N1CCC[C@H]1Cn1ccc(-c2ccc(F)cn2)n1` [Example 91], in test [1], the concentration for half-maximal inhibition (IC50) turned out to be 540 nM, the inhibition at 1 µM came out at 58% and the antagonist dissociation constant (Kb) was found to be 110 nM. Moreover, in test [2], the inhibition at 1 µM was determined as 38%.

Consider `O=C(c1c(-c2ccccc2)nn2c1COCC2)N1CCC[C@H]1Cn1ccc(-c2ccc(F)cn2)n1` [Example 93], for which the inhibition at 1 µM in test [1] turned out to be 41%; in test [2], 36%.

In the case of `O=C(c1c(-c2ccccc2F)nn2c1COCC2)N1[C@H](Cn2ccc(-c3ccc(F)cc3)n2)C[C@@H]2C[C@@H]21` [Example 96], the inhibition at 1 µM turned out to be 44% in test [1] and 22% in test [2].

Take `O=C(c1c(-c2ccccc2)nc2cc(C(F)(F)F)ccn12)N1[C@H](Cn2ccc(-c3ccc(F)cc3)n2)C[C@@H]2C[C@@H]21` [Example 98]: the inhibition at 1 µM was determined as 48% in test [1] and 35% in test [2].

For `O=C(c1c(-c2ccccc2F)nn2ccccc12)N1CC[C@H]1Cn1ccc(-c2ccc(F)cc2)n1` [Example 99], in test [1], the IC50 was 440 nM, the inhibition at 1 µM worked out at 59% and the Kb came out at 92 nM. In test [2], the IC50 came to 270 nM, the inhibition at 1 µM is 61% and the Kb was 46 nM.

With `O=C(c1c(-c2ccccc2F)nn2c1COCC2)N1CC[C@H]1Cn1ccc(-c2ccc(F)cc2)n1` [Example 100], the figures for the inhibition at 1 µM in test [1] and in test [2] were -2% and 19%, respectively.

On to `O=C(c1c(-c2ccccc2)nc2ccc(F)cn12)N1CC[C@H]1Cn1ccc(-c2ccc(F)cc2)n1` [Example 101], for which the figures for the inhibition at 1 µM in test [1] and in test [2] were 25% and 47%, respectively.

With `O=C(c1c(-c2ccccc2)nc2cc(C(F)(F)F)ccn12)N1CC[C@H]1Cn1ccc(-c2ccc(F)cc2)n1` [Example 102], the inhibition at 1 µM in test [1] amounted to 31%. In test [2], the IC50 worked out at 660 nM, the inhibition at 1 µM turned out to be 60% and the Kb is 110 nM.

Regarding `O=C(c1c(-c2ccccc2F)nn2ccccc12)N1CC[C@H]1Cn1ccc(-c2ccc(F)cn2)n1` [Example 103], the figures for the inhibition at 1 µM in test [1] and in test [2] were 24% and 43%, respectively.

Take `O=C(c1c(-c2ccccc2F)nn2c1COCC2)N1CC[C@H]1Cn1ccc(-c2ccc(F)cn2)n1` [Example 104]: the inhibition at 1 µM in test [1] stood at 8%; in test [2], 14%.

Take `O=C(c1c(-c2ccccc2)nc2ccc(F)cn12)N1CC[C@H]1Cn1ccc(-c2ccc(F)cn2)n1` [Example 105]: the inhibition at 1 µM was 5% in test [1] and 29% in test [2].

Turning to `O=C(c1c(-c2ccccc2)nc2cc(C(F)(F)F)ccn12)N1CC[C@H]1Cn1ccc(-c2ccc(F)cn2)n1` [Example 106], the inhibition at 1 µM was 19% in test [1] and 39% in test [2].

As for `O=C(c1c(-c2ccccc2F)nn2c1COCC2)N1[C@H](Cn2ccc(-c3ccc(F)cn3)n2)C[C@@H]2C[C@@H]21` [Example 108], the inhibition at 1 µM in test [1] stood at 23%; in test [2], 17%.

On to `O=C(c1c(-c2ccccc2)nc2ccc(F)cn12)N1[C@H](Cn2ccc(-c3ccc(F)cn3)n2)C[C@@H]2C[C@@H]21` [Example 109], for which the inhibition at 1 µM in test [1] was found to be 45%; in test [2] it was 32%.
